From PMC8453635, “Piperidine Azasugars Bearing Lipophilic Chains: Stereoselective Synthesis and Biological Activity as Inhibitors of Glucocerebrosidase (GCase)” (The Journal of Organic Chemistry, 2021) come the findings set out here.

Usually inhibition stands for how much of the control response was suppressed.

The test system of series [1] is human fibroblasts wild type. In words: MTT cytotoxicity test. It is filed as cell-based. To be noted: prolonged incubation at 100 and 50 μM. How it is done: The MTT test was carried out using the human fibroblasts wild type at different concentrations of compound 33·HCl. Fibroblasts were grown in the presence of Dulbecco’s modified Eagle’s medium supplemented with 10% fetal bovine serum (FBS), 1% glutamine, and 1% penicillin–streptomycin, at 37 °C in controlled atmosphere with 5% CO2. For the experiments, cells were seeded at a density of 20,000 cells per well in 24-well plates and grown for 24 h (or 48 h) before adding the compound. The compound was dissolved in water; then, aliquots of these were diluted in the growth medium. To preserve sterility of solutions, these were filtered with 0.22 μm filters before adding to the dishes containing fibroblasts. Then, cells were incubated at 37 °C in 5% CO2 for 24 h (or 48 h). After this time, the media were replaced with medium containing 0.5 mg/mL of 3-(4,5-dimethylthiazol-2-yl)-2,5-diphenyltetrazolium bromide (MTT); the cells were incubated for an additional 1 h at 37 °C in 5% CO2. Finally, the number of viable cells was quantified by the estimation of their dehydrogenase activity, which reduces MTT to water-insoluble formazan. […] The quantitation was carried out measuring the absorbance of samples at 570 nm with the iMark microplate absorbance reader (BIO RAD) in a 96-well format. […]
33.HCl at different concentrations. After this time, the viability of cells was evaluated using MMT assay. […]
For orientation: Formazan colour is commonly taken as a measure of viable cells.

For series [2], the target named is T1, α-glucosidase (Homo sapiens, UniProt P10253).
T1 construct: α-glucosidase from lymphocytes isolated from healthy donors; from tissue; host or cells: lymphocytes from healthy donors' blood, sonicated homogenate
As to the kind of experiment: Human lysosomal glycosidase selectivity screening (lymphocyte homogenate). It is filed as biochemical. To be noted: 1 mM, read-out: percentage of inhibition, α-Glu. How it is done: In order to avoid undesired inhibitory side effects of a potential new drug, it has to be selective for a given target. The selectivity of the newly synthesized compounds 14, 15, and 33·HCl toward GCase was then investigated, evaluating their inhibition at 1 mM concentration toward six other lysosomal glycosidases (namely, α-and β-mannosidases, α- and β-galactosidases, α-fucosidase, and α-glucosidase) in cell homogenates (leucocytes or lymphocytes) isolated from healthy donors. […] Indeed, only moderate inhibitory activity (ca. 50%) was found toward human β-galactosidase for both piperidines 14 and 15, while negligible inhibitory activity was detected in all other cases. […]
α-Mannosidase activity was measured in a flat-bottomed 96-well plate. […] The reaction was stopped by addition of sodium carbonate (200 μL; 0.5M, pH 10.7) containing Triton X -100 (0.0025 %), and the fluorescence 4 -methylumbelliferone release d by α-mannosidase activity was measured in SpectraMax M2 microplate reader ( λex=365 nm, λem=435 nm; Molecular Devices). […]
β-Mannosidase activity was measured in a flat -bottomed 96 -well plate. […] The reaction was stopped by addition of sodium carbonate (200 μL; 0.5M, pH 10.7) containing Triton X -100 (0.0025 %), and the fluorescence of 4 -methylumbelliferone released by β-mannosidase activity was meas ured in SpectraMax M2 microplate reader ( λex=365 nm, λem=435 nm; […]

`CCCCCCCC[C@@H]1[C@@H](O)[C@H](O)[C@H](O)CN1C(CCCCCCC)CCCCCCC.Cl` [compound 33·HCl, (2R,3R,4R,5R)-2-Octyl-1-(pentadecan-8-yl)-piperidine-3,4,5-triol Hydrochloride]: the “cytotoxicity (MTT test)” value in series [1] is “remarkable cytotoxicity”.
Regarding `CCCCCCCC[C@H]1[C@@H](O)[C@H](O)[C@H](O)CN1CCCCCCCC` [compound 14, (2S,3R,4R,5R)-1,2-Dioctylpiperidine-3,4,5-triol], the inhibition at 1000 µM in series [2] is 18%.
